What was measured:
[1] = tested on: CCK-A receptors; conditions: cited from earlier work
[2] = tested on: CCK-B receptors; conditions: cited from earlier work
[3] = tested on: stomach gastrin receptor; conditions: cited from earlier work
[4] = crude rat brain synaptosomal fraction (title of cited paper); cited from earlier work
[5] = target: T1, Pancreatic CCK Receptor (Rattus norvegicus, UniProt P30551); assay: Pancreatic cholecystokinin receptor binding (125I-CCK-8, rat pancreas membranes); conditions: for IC50: Pancreatic CCK Receptor Binding, rat pancreas, 125I-CCK-8, 37° C., 30 minutes; for effect on the 125I-CCK receptor binding assay: added protease inhibitors
T1 construct: homogenzing a gram of fresh rat pancreas tissue; from tissue; host or cells: fresh rat pancreas membranes
T1 sequence (P30551 1-444): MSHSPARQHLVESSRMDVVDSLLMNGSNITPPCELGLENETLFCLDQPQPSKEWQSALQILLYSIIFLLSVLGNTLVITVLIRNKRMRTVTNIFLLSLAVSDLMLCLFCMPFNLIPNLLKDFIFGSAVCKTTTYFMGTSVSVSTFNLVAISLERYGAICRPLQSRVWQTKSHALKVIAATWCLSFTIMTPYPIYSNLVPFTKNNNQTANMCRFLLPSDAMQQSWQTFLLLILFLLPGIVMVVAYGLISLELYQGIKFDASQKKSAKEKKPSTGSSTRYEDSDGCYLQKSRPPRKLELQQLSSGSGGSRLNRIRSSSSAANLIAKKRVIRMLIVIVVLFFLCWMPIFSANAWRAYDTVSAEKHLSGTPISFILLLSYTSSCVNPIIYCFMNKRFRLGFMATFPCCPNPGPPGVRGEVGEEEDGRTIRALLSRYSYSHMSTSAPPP
Protocol: Pancreatic Cholecystokinin Receptor Binding Assay
Radiolabeled CCK-8 was purchased from New England Nuclear as ^125 I-CCK-8. Receptor binding was performed according to Innis and Snyder Proc. Natl. Acad. Sci., 77, 6917 (1980), with the minor modification of adding the additional protease inhibitors, phenylmethane sulfonyl fluoride (PMSF) and o-phenanthroline, which have no effect on the ^125 I-CCK receptor binding assay. All assays were performed in triplicate. Pancreatic receptor membranes were prepared by homogenzing a gram of fresh rat pancreas tissue in 30 ml TRIS-HCl (50 mM), pH 7.7 using a Brinkman polytron PT10 (Brinkman). The homogenate was washed twice and collected by centrifugation at 48,000× g at 4° C. for 10 minutes. The membranes were resuspended in assay buffer consisting of 5 mM dithiothieitol, 0.1 mM bacitiacin, 5 mM MgCl2 "H2 O, 0.2% heat denatured BSA, 1.2 mM PMSF and 0.5 mM O-phenanthroline at a concentration of 100 ml per gram of pancreas. […] The reaction mixtures were mixed briefly and placed in a 37° C. water bath with gentle shaking for 30 minutes. The reaction mixtures were then diluted with 4 ml of ice-cold TRIS buffer, pH 7.7, containing 1 mg/ml bovine serum albumin and immediately filtered in Watman G F/B filters. The filters were washed with 3×4 ml of the same buffer and the radioactivity associated with the filters was counted in a Beckman 5500 gamma counter. Broths were prepared by adding two volumes of acetone to original broth; supernatants were freeze dried after centrifugation at 1500 g for 10 minutes. The dried samples were then brought up in methanol/H2 O (1:1) and ready for assay.

[6] = tested on: gram-positive bacteria; conditions: cited from earlier work

IC50 [5] [µM]	Compound	affinity for CCK-A receptors [1]	other results
–	CSCC[C@H](NC(=O)[C@@H](N)Cc1c[nH]c2ccccc12)C(=O)N[C@@H](CC(=O)O)C(=O)N[C@@H](Cc1ccccc1)C(N)=O [CCK-4]	lower affinity	affinity for CCK-B receptors [2]: high affinity; potency at stomach gastrin receptor [3]: minimum fully potent CCK sequence
–	CSCC[C@H](NC(=O)[C@H](Cc1ccc(O)cc1)NC(=O)[C@@H](N)CC(=O)O)C(=O)NCC(=O)N[C@@H](Cc1c[nH]c2ccccc12)C(=O)N[C@@H](CCSC)C(=O)N[C@@H](CC(=O)O)C(=O)N[C@@H](Cc1ccccc1)C(N)=O [CCK-8d]	lower affinity	–
–	CSCC[C@H](NC(=O)[C@H](Cc1ccc(OS(=O)(=O)O)cc1)NC(=O)[C@@H](N)CC(=O)O)C(=O)NCC(=O)N[C@@H](Cc1c[nH]c2ccccc12)C(=O)N[C@@H](CCSC)C(=O)N[C@@H](CC(=O)O)C(=O)N[C@@H](Cc1ccccc1)C(N)=O [CCK-8s, H-Asp-Tyr(SO3 H)-Met-Gly-Trp-Met-Asp-Phe-NH2]	high affinity	half-life [4]: less than 1 hour; affinity for CCK-B receptors [2]: high affinity
> 10	CC1=C\C=C\C(=O)Cc2nc(co2)C(=O)N2CCC=C2C(=O)O[C@H](C(C)C)[C@H](C)/C=C/C(=O)NC\C=C\1 [Compound III]	–	–
> 10	CC1=C\C=C\[C@H](O)Cc2nc(co2)C(=O)N2CCC=C2C(=O)O[C@H](C(C)C)[C@H](C)/C=C/C(=O)NC\C=C\1 [Compound II]	–	–
> 10	CC1=C\C=C\[C@@H](O)Cc2nc(co2)C(=O)N2CCC=C2C(=O)O[C@H](C(C)C)[C@H](C)/C=C/C(=O)NC\C=C\1 [Compound I]	–	–
> 100	CC1=C\[C@@H](O)CC(=O)Cc2nc(co2)C(=O)N2CCC=C2C(=O)O[C@H](C(C)C)[C@H](C)/C=C/C(=O)NC\C=C\1 [Virginiamycin M1]	–	antibacterial specificity and action [6]: generally specific for gram-positive bacteria and prevent cell multiplication
–	c1cnc2c(c1)ccc1cccnc12 [o-phenanthroline]	–	effect on the 125I-CCK receptor binding assay [5]: no effect
–	CSCC[C@H](NC(=O)[C@H](Cc1c[nH]c2ccccc12)NC(=O)CCNC(=O)OC(C)(C)C)C(=O)N[C@@H](CC(=O)O)C(=O)N[C@@H](Cc1ccccc1)C(N)=O [pentagastrin]	–	affinity for CCK-B receptors [2]: high affinity
–	O=S(=O)(F)Cc1ccccc1 [phenylmethane sulfonyl fluoride (PMSF), phenylmethane sulfonyl fluoride]	–	effect on the 125I-CCK receptor binding assay [5]: no effect
–	gastrin	lower affinity	–

Reference: patent US5189050A, “Fermentation analogs of Virginiamycin M1 to treat panic and anxiety disorder” (Merck & Co., Inc., priority 1991, dated 1993)
